Source: publication PMC12508949, “Evaluation of the Pharmacokinetic Interactions of Maytenus ilicifolia Mart. ex Reiss Extracts on Drug Intestinal Permeability and Hepatic Metabolism” (ACS Omega, 2025)

Assays:
CYP3A4 [1] = test system: CYP3A4; design: method as in Kimura et al.; conditions: ref Kimura et al., cited from earlier work; for inhibition of 6β-hydroxylation of testosterone: concentration of 100 μM; for IC50: read-out: IC50, 6β-hydroxylation of testosterone
P-gp [2] = target: T1, P-gp (Homo sapiens, UniProt P08183); design: determining P-gp activity, using a Caco-2 cell model; host or cells: Caco-2 cells; method as in Kitagawa et al.; conditions: KB-C2 cells; ref Kitagawa et al.; cited from earlier work
T1 sequence (P08183 whole entry): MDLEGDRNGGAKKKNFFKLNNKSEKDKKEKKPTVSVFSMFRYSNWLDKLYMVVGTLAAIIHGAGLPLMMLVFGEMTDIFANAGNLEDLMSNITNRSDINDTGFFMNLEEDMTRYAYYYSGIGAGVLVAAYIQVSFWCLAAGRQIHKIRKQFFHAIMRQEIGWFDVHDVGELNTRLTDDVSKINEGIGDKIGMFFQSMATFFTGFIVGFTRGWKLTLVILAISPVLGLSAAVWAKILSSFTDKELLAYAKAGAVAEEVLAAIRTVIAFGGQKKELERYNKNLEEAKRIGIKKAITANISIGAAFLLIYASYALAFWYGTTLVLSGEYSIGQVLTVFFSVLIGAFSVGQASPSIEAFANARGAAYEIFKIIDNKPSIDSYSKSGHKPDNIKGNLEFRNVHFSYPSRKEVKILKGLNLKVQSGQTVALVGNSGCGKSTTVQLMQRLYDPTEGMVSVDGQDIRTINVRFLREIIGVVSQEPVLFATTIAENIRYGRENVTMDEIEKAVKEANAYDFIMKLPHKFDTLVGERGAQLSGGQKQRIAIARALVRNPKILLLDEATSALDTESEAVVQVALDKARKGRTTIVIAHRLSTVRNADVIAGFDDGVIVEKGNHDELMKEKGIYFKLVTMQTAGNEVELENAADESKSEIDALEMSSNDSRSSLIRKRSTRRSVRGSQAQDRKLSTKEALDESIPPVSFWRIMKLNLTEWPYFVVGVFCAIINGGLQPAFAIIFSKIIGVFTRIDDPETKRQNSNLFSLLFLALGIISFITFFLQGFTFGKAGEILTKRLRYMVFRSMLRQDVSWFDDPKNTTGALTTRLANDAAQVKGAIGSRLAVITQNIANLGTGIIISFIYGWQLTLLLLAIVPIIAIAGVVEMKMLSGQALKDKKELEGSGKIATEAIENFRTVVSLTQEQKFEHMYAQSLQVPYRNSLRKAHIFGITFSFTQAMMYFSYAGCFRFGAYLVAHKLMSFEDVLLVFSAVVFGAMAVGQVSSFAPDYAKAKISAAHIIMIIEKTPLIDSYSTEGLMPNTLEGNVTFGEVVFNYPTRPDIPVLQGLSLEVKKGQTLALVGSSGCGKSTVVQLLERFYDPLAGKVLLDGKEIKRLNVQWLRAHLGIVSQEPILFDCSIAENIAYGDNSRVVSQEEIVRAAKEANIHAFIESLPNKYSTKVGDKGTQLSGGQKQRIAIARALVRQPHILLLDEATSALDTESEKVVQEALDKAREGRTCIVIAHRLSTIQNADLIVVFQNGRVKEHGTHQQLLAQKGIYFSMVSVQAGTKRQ

CYP3A enzyme = test system: CYP3A enzyme; design: method as in previous studies; conditions: ref previous studies; cited from earlier work
P-gp [3] = target: T1, P-gp; conditions: Caco-2; epicatechin 100 μM; reduced P app(B–A) and efflux of fexofenadine
CYP3A4 [4] = target: CYP3A4 (Homo sapiens, UniProt P08684); test: CYP3A4 inhibition in human liver microsomes (midazolam 1-hydroxylation, nifedipine oxidation); conditions: extracts 2 mg/mL, secondary metabolites 100 μM
Chain of CYP3A4 (Homo sapiens, UniProt P08684) (P08684 whole entry): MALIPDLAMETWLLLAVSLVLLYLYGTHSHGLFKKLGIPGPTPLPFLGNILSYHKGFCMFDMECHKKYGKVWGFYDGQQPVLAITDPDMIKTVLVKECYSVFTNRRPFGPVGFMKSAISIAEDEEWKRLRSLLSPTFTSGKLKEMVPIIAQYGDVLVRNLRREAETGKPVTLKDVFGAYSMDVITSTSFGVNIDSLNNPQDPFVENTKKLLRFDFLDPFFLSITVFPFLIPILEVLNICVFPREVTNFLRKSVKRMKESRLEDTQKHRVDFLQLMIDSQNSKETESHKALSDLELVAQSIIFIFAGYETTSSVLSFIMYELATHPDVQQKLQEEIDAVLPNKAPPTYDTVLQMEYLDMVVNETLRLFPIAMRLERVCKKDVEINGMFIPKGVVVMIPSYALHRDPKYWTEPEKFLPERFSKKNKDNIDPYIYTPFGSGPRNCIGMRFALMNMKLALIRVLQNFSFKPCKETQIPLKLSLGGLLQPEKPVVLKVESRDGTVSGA

Row | Structure (SMILES) | inhibition of 6β-hydroxylation of testosterone (CYP3A4 [1]) [%] | IC50 (CYP3A4 [1]) [µM] | inhibitory activity on the CYP3A enzyme, testosterone 6β-hydroxylation (CYP3A enzyme) | further results
1 | O=c1c(O)c(-c2ccc(O)cc2)oc2cc(O)cc(O)c12 [kaempferol] | 100 | 8.8 | – | –
2 | Oc1cc(O)c2c(c1)O[C@H](c1ccc(O)c(O)c1)[C@H](O)C2 [epicatechin] | – | – | 50% | effect on P-gp activity (in words) (P-gp [2]): did not observe any effect; P-gp inhibitory potential (in words) (P-gp [3]): slight inhibitory potential
3 | O=c1c(O)c(-c2ccc(O)c(O)c2)oc2cc(O)cc(O)c12 [quercetin] | […] | […] | – | remaining activity (%RA), midazolam 1-hydroxylation (CYP3A4 [4]; negative control = 100%): markedly inhibited; remaining activity (%RA), nifedipine oxidation (CYP3A4 [4]; negative control = 100%): markedly inhibited
4 | O.Oc1cc(O)c2c(c1)O[C@H](c1ccc(O)c(O)c1)[C@@H](O)C2 [catechin] | – | – | higher than 50% | remaining activity (%RA) of CYP3A4, substrate reaction not specified (CYP3A4 [4]): higher than 50%
